Experimental data published in patent US20250282818A1, “SYRBACTIN MACROLACTAMS AND UNNATURAL ANALOGS AS PROTEASOME INHIBITORS FOR THE TREATMENT OF MULTIPLE MYELOMA AND CHEMOENZYMATIC SYNTHESIS THEREOF” (UNIVERSITY OF FLORIDA RESEARCH FOUNDATION,INCORPORATED, priority 2022, published 2025).
pEC50: −log10 of the molar value. “Also recorded” adds a separate entry of the source.

Legend:
β2 and β5 subunits = conditions: introduction, no test specified; cited from earlier work
proteasome subunit β5 = target: T1, proteasome subunit β5 (Homo sapiens, UniProt P28074); assay: Proteasome inhibition IC50 measurements in RPMI 8226 cells, substrate Suc-LLVY-AMC (β5); type: cell-based
T1 construct: Cells were then collected and lysed; endogenous in cells; host or cells: RPMI 8226
From the text: Our preliminary series of analogs (FIG. 3), including the natural product glidobactin A (2), were synthesized by largely the same route (FIG. 2).^13 Desoxycepafungin (38) was synthesized from Boc-Lys(Boc)-OH to assess the role of the macrocycle hydroxylation in 1 towards proteasome inhibition. The saturated cepafungin analog 39 was designed to address the possible role of rigidity in the tail fragment induced by the diene seen in many natural cepafungins and glidobactins. An analog bearing unsaturation at its macrocyclic lysine was envisioned to provide a head-to-head comparison between the cepafungin and syringolin A (4) macrocyclic core. […] Proteasome subunit β5 IC50 values were determined in situ in RPMI 8226 cells (FIG. 3). In close agreement with prior measurement of β5 IC50 for natural 1 and 2 in purified yeast proteasome,^8 in our hands the additional branching methyl in 1 indeed leads to ca. 5-fold improved IC50 compared to 2 in RPMI 8226 cells. […] Likewise, saturation of the fatty acid fragment in 39 causes ca. 14-fold decrease in β5 inhibition. This preliminary series of analogs highlighted that the macrocyclic hydroxylation, fatty acid unsaturation, and terminal lipid functionality are critical for potent proteasome inhibitory activity.
(§1) Cellular assays were performed with human multiple myeloma cell line RPMI 8226. First, relative inhibition of proteasome subunits β5 and β2 for all analogs and the natural product was measured at 30 nM compound concentration. Following incubation of the analogs in cell culture for 6 hours, cells were lysed and fluorogenic subunit-specific peptide substrates Suc-LLVY-AMC (β5) or Ac-RLR-AMC (β2) were incubated with the lysates, and fluorescence readings provided relative proteasome activity levels with respect to DMSO (FIG. 6A). Next, cytotoxicity screening was performed at 30 nM and 100 nM concentrations for better coverage of dynamic range (FIG. 6B). […] Therefore, the improved cytotoxicity of phenyl cepafungin 50 likely results from a more pronounced loss of β5 function in RPMI 8226 cells. This drastic increase in proteasome inhibition may be due to pi-stacking of the lipid tail phenyl ring with the β6 subunit residues Tyr106 and/or Tyr5. The β2 subunit-bound natural product has residues Tyr102 and Phe103 on the adjacent β3 subunit oriented further away from the terminal lipid methyl groups, and presumably would not facilitate pi-stacking to the extent possible at the adjacent β6 subunit (see FIG. 4, FIG. 9). […]
(§2) RPMI 8226 cells were seeded in a 6-well plate (1,000,000 cells/well) in cell culture media supplemented with indicated compounds (1,000× stock in DMSO) or DMSO and cultured for 6 hours. […] The plates were incubated at 37° C. for one hour and fluorescence was read at A360ex/A460em. […]

[1] = test system: upregulated protein expression; assay: Global proteomics experiments; type: cell-based, human
[2] = target: β5 subunit of purified yeast proteasome (Saccharomyces cerevisiae, UniProt P23724+P30656); conditions: literature ref. 8; cited from earlier work
20S proteasome = target: T2, 20S proteasome (Homo sapiens, UniProt P28074+Q99436); assay: In-gel competitive profiling and in situ competitive LC-MS/MS based chemoproteomics; type: cell-based; conditions: human MM cells, alkyne-tagged probe analog
T2 construct: endogenous in cells
T2 sequence (P28074 60-263): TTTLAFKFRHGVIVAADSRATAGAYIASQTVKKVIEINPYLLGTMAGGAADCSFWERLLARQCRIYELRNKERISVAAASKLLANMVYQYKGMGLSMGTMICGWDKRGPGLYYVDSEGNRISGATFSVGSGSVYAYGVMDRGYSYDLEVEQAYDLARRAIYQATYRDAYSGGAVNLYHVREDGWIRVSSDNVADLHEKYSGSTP
T2 sequence (Q99436 44-277): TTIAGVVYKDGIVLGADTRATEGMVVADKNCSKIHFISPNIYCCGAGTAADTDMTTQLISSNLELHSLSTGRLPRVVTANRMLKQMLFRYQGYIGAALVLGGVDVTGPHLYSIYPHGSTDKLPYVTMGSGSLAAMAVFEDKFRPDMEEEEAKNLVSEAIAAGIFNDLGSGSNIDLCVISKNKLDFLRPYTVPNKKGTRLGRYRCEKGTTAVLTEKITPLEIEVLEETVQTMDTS
From the text: Prior to our work, a major knowledge gap in the bioactivity of cepafungin was its engagement of the proteasome in human MM cells and selectivity in targeting the proteasome over a multitude of other proteases. To address this, an alkyne-tagged probe analog was synthesized by our chemoenzymatic route and used for classical chemoproteomics studies.

[3] = test system: human MM (RPMI8226, U266, H929) and MCL (JeKo-1, HBL2, Mino) cell lines; assay: MM and MCL cytotoxicity EC50 measurements, cell line panel; type: cell-based; conditions: 3 MM and 3 MCL cell lines, 48 hours
Experimental: (§3) Finally, we sought to compare the new lead analog (50) against the clinical drug bortezomib. It has been shown that in addition to MM, mantle cell lymphoma (MCL) is also sensitive to proteasome inhibition. Indeed, bortezomib itself is FDA-approved for the treatment of MCL.^23 Therefore, we compared 50 and bortezomib in 3 different cell lines of both MM and MCL (FIG. 6E, FIG. 7).
(§4) Cells were seeded in a 96-well plate (20,000 cells/well) in cell culture media supplemented with indicated compounds (1,000× stock in DMSO) or DMSO and cultured for 48 hours. Toxicity was determined using the WST-1 assay (Roche) according to the protocol of the manufacturer. (n=3)

U266 = assay: MM and MCL cytotoxicity EC50 measurements, U266; type: cell-based; conditions: Homo sapiens, U-266; U266, 48 hours, WST-1
Experimental: as §3, §4

RPMI 8226 cells [4] = assay: RPMI8226 cytotoxicity screening (WST-1); type: cell-based, human; conditions: 30 nM and 100 nM, cytotoxicities track with proteasome inhibition at 30 nM
Experimental: Cellular assays were performed with human multiple myeloma cell line RPMI 8226. First, relative inhibition of proteasome subunits β5 and β2 for all analogs and the natural product was measured at 30 nM compound concentration. Following incubation of the analogs in cell culture for 6 hours, cells were lysed and fluorogenic subunit-specific peptide substrates Suc-LLVY-AMC (β5) or Ac-RLR-AMC (β2) were incubated with the lysates, and fluorescence readings provided relative proteasome activity levels with respect to DMSO (FIG. 6A). Next, cytotoxicity screening was performed at 30 nM and 100 nM concentrations for better coverage of dynamic range (FIG. 6B). […] Therefore, the improved cytotoxicity of phenyl cepafungin 50 likely results from a more pronounced loss of β5 function in RPMI 8226 cells. This drastic increase in proteasome inhibition may be due to pi-stacking of the lipid tail phenyl ring with the β6 subunit residues Tyr106 and/or Tyr5. The β2 subunit-bound natural product has residues Tyr102 and Phe103 on the adjacent β3 subunit oriented further away from the terminal lipid methyl groups, and presumably would not facilitate pi-stacking to the extent possible at the adjacent β6 subunit (see FIG. 4, FIG. 9). […] These combined modifications were made in hopes that the effects of both substitutions would be additive.
[…] Toxicity was determined using the WST-1 assay (Roche) according to the protocol of the manufacturer. (n=3)

RPMI 8226 cells [5] = assay: RPMI 8226 cytotoxicity EC50 measurements (WST-1); type: cell-based, human
Experimental: RPMI 8226 cells were seeded in a 96-well plate (20,000 cells/well) in cell culture media supplemented with indicated compounds (1,000× stock in DMSO) or DMSO and cultured for 48 hours. Toxicity was determined using the WST-1 assay (Roche) according to the protocol of the manufacturer. (n=3)
Cytotoxicity of phenyl cepafungin (50) and hybrid analog (S39) in RPMI 8226 RPMI 8226 cells were seeded in a 96-well plate (20,000 cells/well) in cell culture media supplemented with indicated compounds (1,000× stock in DMSO) or DMSO and cultured for 48 hours. Toxicity was determined using the WST-1 assay (Roche) according to the protocol of the manufacturer. (n=3)

proteasome subunit β2 = assay: Proteasome inhibition IC50 measurements in RPMI 8226 cells, substrate Ac-RLR-AMC (β2); type: cell-based, human; conditions: 6 hours
Experimental: as §1, with “Tyr5.” for “Tyr5. The β2 subunit-bound natural product has residues Tyr102 and Phe103 on the adjacent β3 subunit oriented further away from the terminal lipid methyl groups, and presumably would not facilitate pi-stacking to the extent possible at the adjacent β6 subunit (see FIG. 4, FIG. 9).”
as §2

Compound | proteasome inhibitory activity, in words (β2 and β5 subunits) | fold improved β5 IC50 of 1 compared to 2 (proteasome subunit β5; in situ in RPMI 8226 cells) | fold improved β5 inhibition of 1 compared to desoxy-cepafungin analog 38 (proteasome subunit β5; in situ in RPMI 8226 cells) | overlap in upregulated protein expression between 1 and bortezomib [1] | fold improvement of β5-subunit inhibition compared to glidobactin A (2) [2] | selectivity of proteasome engagement, in words (20S proteasome) | selectivity of proteasome engagement, in words (20S proteasome; listed as cepafungin) | cytotoxicity compared with bortezomib, in words [3] | fold lower β5 IC50 than 1 / fold greater β5 inhibitory activity (proteasome subunit β5; RPMI 8226 cells, 6 hours) [fold] | pEC50 (U266) | potency compared with parent natural product 1 in screening (FIG. 6A, 6B) (RPMI 8226 cells [4]) | pEC50 (RPMI 8226 cells [5]; Homo sapiens, RPMI 8226, 48 hours, WST-1) | fold greater cytotoxicity than parent cepafungin I 1 (RPMI 8226 cells [5]; RPMI 8226, EC50 comparison) | β2 subunit IC50 compared with 1, in words (proteasome subunit β2)
CC(C)CCCCC/C=C/C=C\C(=O)N[C@H](C(=O)N[C@H]1C[C@H](O)CCNC(=O)/C=C\[C@H](C)NC1=O)[C@@H](C)O [compound 1, cepafungin I] | most potent proteasome inhibitor among the syrbactins; also recorded: low nanomolar inhibitory activity | ca. 5 fold | ca. 11 fold | high degree of overlap in upregulated protein expression | ca. 5 fold | exceptional selectivity | exceptional selectivity towards several proteasome subunits |  |  |  |  |  |  | 
CC(C)C[C@H](NC(=O)[C@H](Cc1ccccc1)NC(=O)c1cnccn1)B(O)O [bortezomib, reference compound] |  |  |  | high degree of overlap in upregulated protein expression |  |  |  | low-nanomolar cytotoxicity |  |  |  |  |  | 
C[C@H]1/C=C/C(=O)NCC[C@H](O)C[C@H](NC(=O)[C@@H](NC(=O)/C=C/C=C/CCCCCc2ccccc2)[C@@H](C)O)C(=O)N1 [compound 50, (2E,4E)-N-((2S,3R)-3-hydroxy-1-(((5S,8S,10S,E)-10-hydroxy-5-methyl-2,7-dioxo-1,6-diazacyclododec-3-en-8-yl)amino)-1-oxobutan-2-yl)-10-phenyldeca-2,4-dienamide] |  |  |  |  |  |  |  | similarly low-nanomolar cytotoxicity in all cell lines as bortezomib except for U266 | 7 | ~7.70 | more potent than the parent natural product 1; also recorded: most potent | 8.52 | 4-5 fold | roughly similar IC50
